Test [1] concerns Mycobacterium tuberculosis H37Rv. Put plainly: In vitro assay for antimicrobial susceptibility (microplate Alamar blue, MIC). Type of test: cell-based. The conditions noted are these: for MIC: Mycobacterium tuberculosis, read-out: MIC (μg/mL) against H37Rv.
Test [2] relates to mitochondrial protein synthesis (MPS) in H9C2 cells. Put plainly: In vitro assay for MPS inhibition (COX-1 / SDH-A ELISA in H9C2 cells). The note with it: Rattus norvegicus, 120 h; H9C2 cells, 5 days incubation; read-out: IC50 (μM) MPS inhibition. The class given is cell-based, rat. For orientation: In an ELISA, binding on a coated surface is turned into a signal by an enzyme label.

Setting [3] is: M. tuberculosis H37Rv, 7H9 broth, Alamar blue.

Converted amounts (≈) assume the structure as drawn. Where two headings read alike, the source gives them in different places.

The term IC50 denotes the concentration that gives 50% inhibition.

Turning to `CS(=O)(=O)NC[C@H]1CN(c2ccc(N3CC4(COC4)C3)c(F)c2)C(=O)O1` [OTB-222, (R)—N-((3-(3-Fluoro-4-(2-oxa-6-azaspiro[3.3]heptan-6-yl)phenyl)-2-oxo-oxazolidin-5-yl)methyl)methanesulfonamide], in test [1] (setting [3]), the MIC is 7.4 µg/mL (≈ 19.2 µM).

On to `NC[C@H]1CN(c2ccc(N3CC4(COC4)C3)c(F)c2)C(=O)O1` [OBD-057], for which the MIC in test [1] (setting [3]) came out at 0.4 µg/mL (≈ 1.3 µM). Besides, in test [2], the IC50 was found to be 67 µM.

On to `CS(=O)(=O)NC[C@H]1CN(c2cc(F)c(N3CC4(CSC4)C3)c(F)c2)C(=O)O1` [OTB-516-2A], for which, in test [1] (setting [3]), the MIC amounted to 0.05 µg/mL (≈ 0.119 µM). Further, the 50% inhibitory concentration (IC50) in test [2] was above 100 µM.

In the case of `O=C1O[C@@H](Cn2cncn2)CN1c1ccc(N2CCCSCCC2)c(F)c1` [OBD-008, (R)-5-((1H-1,2,4-triazol-1-yl)methyl)-3-(3-fluoro-4-(1,5-thiazocan-5-yl)phenyl)oxazolidin-2-one], the MIC in test [1] (setting [3]) came out at 3.51 µg/mL (≈ 8.97 µM). Also, in test [2], the IC50 amounted to 29.9 µM.

Turning to `O=C(NC[C@H]1CN(c2cc(F)c(N3CC4(C3)C[S+]([O-])C4)c(F)c2)C(=O)O1)C1CCC1` [OTB-251], the MIC in test [1] (setting [3]) was 0.9 µg/mL (≈ 2.05 µM). Further, the IC50 in test [2] was 24 µM.

Take `O=C1O[C@@H](CO)CN1c1ccc(N2[C@@H]3CC[C@H]2CSC3)c(F)c1` [OTB-501, (R)-3-(4-((1R,5S)-3-Thia-8-azabicyclo[3.2.1]octan-8-yl)-3-fluorophenyl)-5-(hydroxymethyl)oxazolidin-2-one]: the MIC in test [1] (H37RV) came out at 4.5 µg/mL (≈ 13.3 µM).

As to `CCCCS(=O)(=O)NC[C@H]1CN(c2ccc(N3CCCSCCC3)c(F)c2)C(=O)O1` [OTB-120, (R)—N-[[3-(3-Fluoro-4-(1,5-thiazocan-5-yl)phenyl)-2-oxo-oxazolidin-5-yl]methyl]butane-1-sulfonamide], the MIC in test [1] (setting [3]) amounted to 3.88 µg/mL (≈ 8.44 µM). Moreover, the IC50 in test [2] worked out at 7.27 µM.

Regarding `O=C(NC[C@H]1CN(c2cc(F)c(N3CC4(CSC4)C3)c(F)c2)C(=O)O1)C1CC1` [OTB-243, (S)—N-((3-(3,5-Difluoro-4-(2-thia-6-azaspiro[3.3]heptan-6-yl)phenyl)-2-oxo-oxazolidin-5-yl)methyl)cyclopropanecarboxamide], in test [1] (setting [3]), the MIC worked out at 0.03 µg/mL (≈ 0.0733 µM). Besides, the IC50 in test [2] was 14 µM.

`O=C1O[C@@H](Cn2ccnn2)CN1c1ccc(N2CCC[S+]([O-])CCC2)c(F)c1` [OBD-002, (R)-5-((1H-1,2,3-Triazol-1-yl)methyl)-3-(3-fluoro-4-(1-oxido-1,5-thiazocan-5-yl)phenyl)oxazolidin-2-one]: the MIC in test [1] (setting [3]) came out at 1.6 µg/mL (≈ 3.93 µM). The IC50 in test [2] worked out at 29 µM.

With `O=C1O[C@@H](Cn2ccnn2)CN1c1ccc(N2CCCSCCC2)c(F)c1` [OBD-001, (R)-5-((1H-1,2,3-triazol-1-yl)methyl)-3-(3-fluoro-4-(1,5-thiazocan-5-yl)phenyl)oxazolidin-2-one], the MIC in test [1] (setting [3]) is 0.3 µg/mL (≈ 0.766 µM). For the same molecule, the IC50 in test [2] turned out to be 12 µM.

As to `CNC[C@H]1CN(c2ccc(N3CCCSCC3)c(F)c2)C(=O)O1` [OTB-109, (S)-3-[3-Fluoro-4-(1,4-thiazepan-4-yl)phenyl]-5-[(methylamino)methyl]oxazolidin-2-one], the MIC in test [1] (setting [3]) worked out at 32 µg/mL (≈ 94.3 µM).

`CNC(=O)OC[C@H]1CN(c2ccc(N3CC4(C3)C[S+]([O-])C4)c(F)c2)C(=O)O1` [OTB-260-4B]: the MIC in test [1] (H37RV) came to 20 µg/mL (≈ 50.3 µM). Further, in test [2], the IC50 is above 100 µM.

For the molecule `O=C(NC[C@H]1CN(c2ccc(N3CC4(COC4)C3)c(F)c2)C(=O)O1)C1CCC1` [OTB-239, (S)—N-((3-(3-Fluoro-4-(2-oxa-6-azaspiro[3.3]heptan-6-yl)phenyl)-2-oxo-oxazolidin-5-yl)methyl)cyclobutanecarboxamide], in test [1] (setting [3]), the MIC was 2.1 to 3.8 µg/mL (≈ 5.39 to 9.76 µM). For the same molecule, in test [2], the IC50 was in the range of 19 to 67 µM.

Take `CC(=O)NC[C@H]1CN(c2ccc(N3CCC[S+]([O-])CCC3)c(F)c2)C(=O)O1` [OTB-124, (S)—N-[[3-(3-Fluoro-4-(1-oxido-1,5-thiazocan-5-yl)phenyl)-2-oxo-oxazolidin-5-yl]methyl]acetamide]: in test [1] (setting [3]), the MIC was in the range of 0.26 to 1.4 µg/mL (≈ 0.654 to 3.52 µM).

In the case of `CCCC(=O)NC[C@H]1CN(c2cc(F)c(N3CCCSCCC3)c(F)c2)C(=O)O1` [OBD-026, (S)—N-((3-(3,5-difluoro-4-(1,5-thiazocan-5-yl)phenyl)-2-oxooxazolidin-5-yl)methyl) butyramide], in test [1] (setting [3]), the MIC stood at 0.4 µg/mL (≈ 0.936 µM).

In the case of `O=C(NC[C@H]1CN(c2ccc(N3CC4(CSC4)C3)c(F)c2)C(=O)O1)C1CCC1` [OTB-250], in test [1] (setting [3]), the MIC came to 0.06 µg/mL (≈ 0.148 µM).

With `O=C(NC[C@H]1CN(c2cc(F)c(N3CC4(CSC4)C3)c(F)c2)C(=O)O1)C1CCC1` [OTB-244, (S)—N-((3-(3,5-Difluoro-4-(2-thia-6-azaspiro[3.3]heptan-6-yl)phenyl)-2-oxo-oxazolidin-5-yl)methyl)cyclobutanecarboxamide], the MIC in test [1] (setting [3]) fell in the range of 0.02 to 0.6 µg/mL (≈ 0.0472 to 1.42 µM).

As to `O=C1O[C@@H](CO)CN1c1ccc(N2CC3(COC3)C2)c(F)c1` [OTB-201, (R)-3-(3-Fluoro-4-(2-oxa-6-azaspiro[3.3]heptan-6-yl)phenyl)-5-(hydroxymethyl)oxazolidin-2-one], the MIC in test [1] (setting [3]) was 16 µg/mL (≈ 51.9 µM).

Regarding `O=C(NC[C@H]1CN(c2ccc(N3CCCSCC3)c(F)c2)C(=O)O1)C1CCC1` [OTB-414, (S)—N-((3-(3-Fluoro-4-(1,4-thiazepan-4-yl)phenyl)-2-oxooxazolidin-5-yl)methyl)cyclobutanecarboxamide], the MIC in test [1] (setting [3]) was found to be 0.171 µg/mL (≈ 0.42 µM).

As for `CC(=O)NC[C@H]1CN(c2ccc(N3[C@@H]4CC[C@H]3C[S+]([O-])C4)c(F)c2)C(=O)O1` (stereo partly drawn) [OTB-503, N-(((5S)-3-(3-Fluoro-4-((1R,5S)-3-oxido-3-thia-8-azabicyclo[3.2.1]octan-8-yl)phenyl)-2-oxo-oxazolidin-5-yl)methyl)acetamide], the MIC in test [1] (H37RV) lay within 0.2 to 1.3 µg/mL (≈ 0.506 to 3.29 µM).

Regarding `O=C1O[C@@H](Cn2ccnn2)CN1c1ccc(N2[C@@H]3CC[C@H]2CSC3)c(F)c1` [OTB-504, (R)-5-((1H-1,2,3-Triazol-1-yl)methyl)-3-(4-((1R,5S)-3-thia-8-azabicyclo[3.2.1]octan-8-yl)-3-fluorophenyl)oxazolidin-2-one], the MIC in test [1] (H37RV) fell in the range of 0.5 to 0.7 µg/mL (≈ 1.28 to 1.8 µM).

Take `O=C(NC[C@H]1CN(c2ccc(N3CCCSCCC3)c(F)c2)C(=O)O1)c1cccs1` [OTB-118, (S)—N-[[3-(3-Fluoro-4-(1,5-thiazocan-5-yl)phenyl)-2-oxo-oxazolidin-5-yl]methyl]thiophene-2-carboxamide]: the MIC in test [1] (setting [3]) came to 1.55 µg/mL (≈ 3.44 µM).

In the case of `CC(=O)NC[C@H]1CN(c2cc(F)c(N3CCCSCCC3)c(F)c2)C(=O)O1` [OBD-027], the MIC in test [1] (H37RV) was 0.3 µg/mL (≈ 0.751 µM).

For `O=C(NC[C@H]1CN(c2ccc(N3CC4(COC4)C3)c(F)c2)C(=O)O1)c1cccs1` [OTB-206, (S)—N-((3-(3-Fluoro-4-(2-oxa-6-azaspiro[3.3]heptan-6-yl)phenyl)-2-oxo-oxazolidin-5-yl)methyl)thiophene-2-carboxamide], the MIC in test [1] (setting [3]) is 2.8 µg/mL (≈ 6.71 µM).

With `O=C1O[C@@H](Cn2ccnn2)CN1c1ccc(N2[C@@H]3CC[C@H]2C[S+]([O-])C3)c(F)c1` (stereo partly drawn) [OTB-505, (5R)-5-((1H-1,2,3-Triazol-1-yl)methyl)-3-(3-fluoro-4-((1R,5S)-3-oxido-3-thia-8-azabicyclo[3.2.1]octan-8-yl)phenyl)oxazolidin-2-one], in test [1] (H37RV), the MIC was 1.8 to 3.5 µg/mL (≈ 4.44 to 8.63 µM).

For `O=C1O[C@@H](Cn2ccnn2)CN1c1cc(F)c(N2CC3(COC3)C2)c(F)c1` [OTB-234, (R)-5-((1H-1,2,3-Triazol-1-yl)methyl)-3-(3,5-difluoro-4-(2-oxa-6-azaspiro[3.3]heptan-6-yl)phenyl)oxazolidin-2-one], the MIC in test [1] (setting [3]) fell in the range of 0.39 to 4 µg/mL (≈ 1.03 to 10.6 µM).

Turning to `O=C1O[C@@H](Cn2cncn2)CN1c1ccc(N2[C@@H]3CC[C@H]2C[S+]([O-])C3)c(F)c1` (stereo partly drawn) [OBD-018, (5R)-5-((1H-1,2,4-Triazol-1-yl)methyl)-3-(3-fluoro-4-((1R,5S)-3-oxido-3-thia-8-azabicyclo[3.2.1]octan-8-yl)phenyl)oxazolidin-2-one], the MIC in test [1] (H37RV) was above 32 µg/mL.

`O=C1O[C@@H](Cn2ccnn2)CN1c1cc(F)c(N2[C@@H]3CC[C@H]2CSC3)c(F)c1` [OTB-511, (R)-5-((1H-1,2,3-Triazol-1-yl)methyl)-3-(4-((1R,5S)-3-thia-8-azabicyclo[3.2.1]octan-8-yl)-3,5-difluorophenyl)oxazolidin-2-one]: in test [1] (H37RV), the MIC was 0.06 to 0.2 µg/mL (≈ 0.147 to 0.491 µM).

For `O=C1O[C@@H](Cn2cncn2)CN1c1ccc(N2C3CCC2CSC3)c(F)c1` [OBD-021, (5R)-5-((1H-1,2,4-triazol-1-yl)methyl)-3-(4-(3-thia-8-aza-bicyclo[3.2.1]octan-8-yl)-3-fluorophenyl)oxazolidin-2-one], in test [1] (H37RV), the MIC was determined as 27.5 µg/mL (≈ 70.5 µM).

In the case of `CS(=O)(=O)NC[C@H]1CN(c2ccc(N3[C@@H]4CC[C@H]3CSC4)c(F)c2)C(=O)O1` [OTB-236, N—(((R)-3-(4-((1R,5S)-3-Thia-8-azabicyclo[3.2.1]octan-8-yl)-3-fluorophenyl)-2-oxo-oxazolidin-5-yl)methyl)methanesulfonamide], the MIC in test [1] (H37RV) was found to be 14.3 µg/mL (≈ 34.3 µM).

As for `NC[C@H]1CN(c2cc(F)c(N3CC4(COC4)C3)c(F)c2)C(=O)O1` [OBD-062], in test [1] (setting [3]), the MIC lay within 0.1 to 0.25 µg/mL (≈ 0.307 to 0.768 µM).

As to “(R)-5-((1H-1,2,3-Triazol-1-yl)methyl)-3-(3-fluoro-4-(2-oxa-6-azaspiro[3.3]heptan-6-yl)phenyl)oxazolidin-2-one [OTB-203]”, the “MIC (μg/mL) against H37Rv” value in test [1] (setting [3]) is above 32 µg/mL.

Consider `O=C(NC[C@H]1CN(c2ccc(N3CC4(COC4)C3)c(F)c2)C(=O)O1)c1ccco1` [OTB-205, (S)—N-((3-(3-Fluoro-4-(2-oxa-6-azaspiro[3.3]heptan-6-yl)phenyl)-2-oxo-oxazolidin-5-yl)methyl)furan-2-carboxamide], for which, in test [1] (setting [3]), the MIC was found to be 3.9 µg/mL (≈ 9.72 µM).

In the case of `COC(=O)NC[C@H]1CN(c2cc(F)c(N3CC4CCC(C3)O4)c(F)c2)C(=O)O1` [OBD-049], the MIC in test [1] (setting [3]) lay in the range of 0.25 to 1 µg/mL (≈ 0.629 to 2.52 µM).

Turning to `O=C(NC[C@H]1CN(c2ccc(N3CC4(CSC4)C3)c(F)c2)C(=O)O1)C1CC1` [OTB-249], in test [1] (setting [3]), the MIC lay in the range of 0.06 to 0.15 µg/mL (≈ 0.153 to 0.383 µM).

On to `COC(=O)NC[C@H]1CN(c2ccc(N3CC4(COC4)C3)c(F)c2)C(=O)O1` [OTB-223, Methyl (S)-((3-(3-fluoro-4-(2-oxa-6-azaspiro[3.3]heptan-6-yl)phenyl)-2-oxo-oxazolidin-5-yl)methyl)carbamate], for which the MIC in test [1] (setting [3]) was in the range of 0.8 to 2.6 µg/mL (≈ 2.19 to 7.12 µM).

Source of the values: patent publication US11964949B2, “Substituted phenyloxazolidinones for antimicrobial therapy” (priority 2015, dated 2024).
